Data on one compound can be found in publication PMC7650794, “Pharmacological Modulation of Blood–Brain Barrier Permeability by Kinin Analogs in Normal and Pathologic Conditions” (Pharmaceuticals, 2020).

Non-standard residues stand in square brackets, D forms with d. Residues, ends and D or L forms follow the SMILES beside them. *: point of attachment. X1 = COc1ccc(C[C@@H](CN[C@@H](CCCNC(=N)N)C(=O)O)N*)cc1; Hyp = O=C(O)[C@@H]1C[C@@H](O)CN1; 2Thi = N[C@@H](Cc1cccs1)C(=O)O

Data set [1] addresses T1, human B2R (Homo sapiens, UniProt P30411).
T1 construct: expressed in transfected cells; host or cells: QBI HEK 293A cells, lentiviral transduction with pCDH-BDKRB2, puromycin selection
T1 sequence (P30411 1-391): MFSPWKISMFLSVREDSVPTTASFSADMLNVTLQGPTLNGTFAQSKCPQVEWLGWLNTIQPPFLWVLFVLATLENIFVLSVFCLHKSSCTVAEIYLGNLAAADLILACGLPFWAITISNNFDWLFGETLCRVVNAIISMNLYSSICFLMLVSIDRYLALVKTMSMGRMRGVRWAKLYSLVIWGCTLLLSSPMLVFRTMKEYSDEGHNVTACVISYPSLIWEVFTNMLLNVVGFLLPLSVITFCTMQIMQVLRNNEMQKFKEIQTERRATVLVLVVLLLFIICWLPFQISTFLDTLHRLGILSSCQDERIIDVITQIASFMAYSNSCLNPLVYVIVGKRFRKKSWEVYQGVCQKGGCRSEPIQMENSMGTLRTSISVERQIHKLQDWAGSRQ
Briefly: Radioligand displacement binding assay, [3H]BK, human B2R-HEK293 cells. The note with it: displacement of 1 nM [3H]BK, living adherent HEK293 cells stably expressing human B2R, serum-free DMEM, 1.5 h, 4 °C; mean of two independent experiments performed in duplicates. On the procedure:
The pCDH-BDKRB2 vector was produced from the plasmid pcDNA3.1/human BDKRB2 by PCR amplification using the primers 5′-[…]-3′ and 5′-[…]-3′, and introduced into pCDH-CMV-MCS-EF1 vector using BamHI et XbaI restriction sites. Lentiviruses were produced from pCDH-BDKRB2 vector in HEK293T cells using the X-tremeGENE HP transfection reagent (Millipore-Sigma, Oakville, ON, Canada). Lentiviruses were harvested 48 h post-transfection and used to infect QBI HEK 293A cells (ATCC). Transduced cells were selected using 5 µg/mL of puromycin (Thermo Fisher, Burlington, On, Canada).
Radioligand displacement binding assays were performed as we previously described, with slight modifications. HEK293 cells stably expressing human B2R were used for these assays (see text above). […] Radioactivity of samples was measured by a β-scintillation counter (PerkinElmer, Woodbridge, On, Canada). Binding affinities of peptides were expressed in terms of IC50 values—the molar concentration of an unlabeled agonist causing 50% displacement of specific binding (GraphPad Prism 8.2).
(In a radioligand displacement assay an active substance lowers the binding of a labelled ligand.)

Data set [2] concerns the target T1, human B2R. As to the kind of experiment: IP-One accumulation assay, human B2R-HEK293 cells. In kind it is cell-based. The note with it: IP1 accumulation, 30 min, room temperature, pH 7.4, 50 mM LiCl, human B2R-HEK293, 15,000 cells per well; mean of two independent experiments performed in duplicates; read-out: IP1 Assays (EC50; nM). The procedure:
The IP-One assay was performed on living, adherent human B2R-HEK293 cells according to the manufacturer’s recommendations (Cisbio, #62IPAPEB, Bedford, MA, USA). […] IP1-d2 and anti-IP1-Cryptate were added for at least 1 h. Fluorescence signal was measured using a Tecan M1000 plate reader (excitation at 320 nm and emission at 620 and 665 nm). EC50 values were calculated by curve-fitting using GraphPad Prism 8.2.

For data set [3], the system named is BBB, normal and focal-irradiated dog brains. The following applies: in vivo, iv; cited from earlier work. From the text: Radiation therapy is part of the standard treatment paradigm for CNS tumors. The short-term effects of prior radiotherapy on the BBB opening induced by Labradimil have been investigated in normal and focal-irradiated dog brains. […] In this study, we focused on late post-radiotherapy complications leading to radionecrosis (Figure 4), which c ...

In data set [4] the test system is angiotensin-converting enzyme (ACE, alias kininase II). The note with it: cited from earlier work.

The IC50 is the midpoint of a concentration-inhibition curve. A high value points to lower potency. By EC50 is commonly meant the concentration giving half of the maximal effect. Take `COc1ccc(C[C@@H](CN[C@@H](CCCNC(=N)N)C(=O)O)NC(=O)[C@@H]2CCCN2C(=O)[C@H](CO)NC(=O)[C@H](Cc2cccs2)NC(=O)CNC(=O)[C@@H]2C[C@@H](O)CN2C(=O)[C@@H]2CCCN2C(=O)[C@@H](N)CCCNC(=N)N)cc1` [Labradimil, [Hyp^3, Thi^5, (^4Me)Tyr^8(ΨCH2NH)Arg^9]-BK] (H-RP[Hyp]G[2Thi]SP-X1): the IC50 on human B2R [1] is 17 nM. Also, the EC50 on human B2R [2] came to 47 nM. Besides, the “vasogenic edema associated with focal radiation injury” value in data set [3] was “not exacerbating the vasogenic edema associated with focal radiation injury”. For the same compound, the “protection against enzymatic degradation by ACE” value in data set [4] is listed as “fully protected against enzymatic degradation by the angiotensin-converting enzyme”.
